Assays:
Type in all cases: cell-based, mouse
[1] = system: α7 integrin (LacZ reporter in α7βgal+/− myoblasts); test: Myoblast α7+/LacZ integrin FDG assay (Burkin assay in myoblasts, 96-well); settings: α7+/LacZ myoblasts, 96-well
[2] = system: α7 integrin (LacZ reporter in α7+/LacZ myotubes); test: Myotube α7 integrin FDG assay (Burkin assay in myotubes, 96-well); settings: myotubes
[3] = system: β-galactosidase in CMV-LacZ C2C12 myoblasts; test: CMV-LacZ secondary screen in C2C12 myoblasts (β-Gal stabilizing assay); settings: CMV-LacZ C2C12 myoblasts
Method in brief: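 β-gal stabilization was measured in C2C12 myoblasts or myotubes stably transfected with a CMV-driven LacZ construct, using the FDG β-gal assay. Compounds were tested in dose-response at 0.5, 1, 5, 10, 20 and 40 μM, with two replicates per point.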

[4] = system: β-galactosidase in CMV-LacZ C2C12 myotubes; test: CMV-LacZ secondary screen in C2C12 myotubes (β-Gal stabilizing assay); settings: C2C12 CMV-LacZ myotubes, fold relative to DMSO
Method in brief: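 β-Gal level was the read-out, measured in a clonal C2C12 line expressing LacZ from a CMV promoter. Dose-response curves used six concentrations, 0.5 μM up to 40 μM, with duplicate points.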

Row | SMILES | Burkin Assay in Myoblasts, signal relative to DMSO ([1]; 0.5 uM) | Burkin Assay in Myoblasts, signal relative to DMSO ([1]; 1 uM) | Burkin Assay in Myoblasts, signal relative to DMSO ([1]; 5 uM) | Burkin Assay in Myoblasts, signal relative to DMSO ([1]; 10 uM) | Burkin Assay in Myoblasts, signal relative to DMSO ([1]; 20 uM) | Burkin Assay in Myoblasts, signal relative to DMSO ([1]; 40 uM) | Burkin Assay in Myotubes, α7 integrin LacZ reporter signal relative to DMSO ([2]; 0.5 uM) | Burkin Assay in Myotubes, α7 integrin LacZ reporter signal relative to DMSO ([2]; 1 uM) | Burkin Assay in Myotubes, α7 integrin LacZ reporter signal relative to DMSO ([2]; 5 uM) | Burkin Assay in Myotubes, α7 integrin LacZ reporter signal relative to DMSO ([2]; 10 uM) | Burkin Assay in Myotubes, α7 integrin LacZ reporter signal relative to DMSO ([2]; 20 uM) | Burkin Assay in Myotubes, α7 integrin LacZ reporter signal relative to DMSO ([2]; 40 uM) | CMV-LACZ in Myoblasts (β-galactosidase activity relative to DMSO) ([3]; 0.5 uM) | CMV-LACZ in Myoblasts (β-galactosidase activity relative to DMSO) ([3]; 1 uM) | CMV-LACZ in Myoblasts (β-galactosidase activity relative to DMSO) ([3]; 5 uM) | CMV-LACZ in Myoblasts (β-galactosidase activity relative to DMSO) ([3]; 10 uM) | CMV-LACZ in Myoblasts (β-galactosidase activity relative to DMSO) ([3]; 20 uM) | CMV-LACZ in Myoblasts (β-galactosidase activity relative to DMSO) ([3]; 40 uM) | CMV-LACZ in Myotubes, signal relative to DMSO ([4]; 0.5 uM) | CMV-LACZ in Myotubes, signal relative to DMSO ([4]; 1 uM) | further results
1 | O=C(CNC(=O)c1cccc(F)c1)N/N=C/c1cc(Br)ccc1OCc1ccccc1 [MLS000591667-01] | 0.9901 | 1.034 | 1.132 | 1.088 | 0.8623 | 1.1351 | 1.005 | 1.1434 | 1.072 | 0.9986 | 0.6781 | 0.6965 | 0.9491 | 0.7850 | 1.1587 | 1.1592 | 0.8030 | 1.0593 | 0.8600 | 1.0726 | CMV-LACZ in Myotubes, signal relative to DMSO ([4]; 5 uM): 1.0824; CMV-LACZ in Myotubes, signal relative to DMSO ([4]; 10 uM): 1.0152; CMV-LACZ in Myotubes, signal relative to DMSO ([4]; 20 uM): 0.8929; CMV-LACZ in Myotubes, signal relative to DMSO ([4]; 40 uM): 0.8800
2 | COC(=O)c1ccccc1NC(=O)CSc1nc(O)c(-c2ccccc2)c(=O)[nH]1 [MLS000621451-01] | 1.065 | 1.018 | 1.066 | 1.114 | 1.0713 | 1.088 | 0.9471 | 0.8932 | 0.9254 | 1.071 | 0.8327 | 1.024 | 1.0388 | 1.1579 | 0.9255 | 1.3023 | 1.2493 | 1.1926 | 1.1114 | 0.9295 | CMV-LACZ in Myotubes, signal relative to DMSO ([4]; 5 uM): 1.0177; CMV-LACZ in Myotubes, signal relative to DMSO ([4]; 10 uM): 1.1398; CMV-LACZ in Myotubes, signal relative to DMSO ([4]; 20 uM): 0.9853; CMV-LACZ in Myotubes, signal relative to DMSO ([4]; 40 uM): 0.9695
3 | Cc1ccc(C(=O)N2CCN(S(=O)(=O)N3CCOCC3)CC2)cc1 [MLS000663185-01] | 1.109 | 0.9744 | 1.399 | 0.9312 | 0.9222 | 0.8328 | 0.968 | 0.8137 | 0.9767 | 1.0708 | 0.7791 | 1.118 | 1.1390 | 1.1477 | 0.9688 | 0.8567 | 0.9211 | 0.9347 | 1.0924 | 0.9800 | CMV-LACZ in Myotubes, signal relative to DMSO ([4]; 5 uM): 0.9322; CMV-LACZ in Myotubes, signal relative to DMSO ([4]; 10 uM): 0.8722; CMV-LACZ in Myotubes, signal relative to DMSO ([4]; 20 uM): 0.9540; CMV-LACZ in Myotubes, signal relative to DMSO ([4]; 40 uM): 1.1270
4 | COCCSc1ccccc1C(=O)Nc1cc(C)cc(C)c1 [MLS000675441-01] | 0.9397 | 0.8764 | 1.044 | 1.248 | 0.9015 | 0.8996 | 0.8552 | 1.071 | 0.9591 | 1.119 | 0.7476 | 0.7168 | 1.0332 | 0.9289 | 0.8800 | 0.8690 | 0.8656 | 0.7437 | 1.0074 | 1.1032 | CMV-LACZ in Myotubes, signal relative to DMSO ([4]; 5 uM): 1.0460; CMV-LACZ in Myotubes, signal relative to DMSO ([4]; 10 uM): 1.0337; CMV-LACZ in Myotubes, signal relative to DMSO ([4]; 20 uM): 0.9578; CMV-LACZ in Myotubes, signal relative to DMSO ([4]; 40 uM): 0.9822
5 | COc1cccc(C(=O)COc2ccc3ccc(=O)oc3c2)c1 [MLS000677675-01] | 1.093 | 1.061 | 0.9873 | 1.028 | 1.004 | 0.9554 | 1.278 | 1.205 | 1.081 | 1.044 | 0.6675 | 0.6873 | 1.0343 | 1.1214 | 0.9905 | 1.0373 | 1.0763 | 1.1578 | 0.8619 | 0.9962 | CMV-LACZ in Myotubes, signal relative to DMSO ([4]; 5 uM): 1.0578; CMV-LACZ in Myotubes, signal relative to DMSO ([4]; 10 uM): 1.0091; CMV-LACZ in Myotubes, signal relative to DMSO ([4]; 20 uM): 0.9918; CMV-LACZ in Myotubes, signal relative to DMSO ([4]; 40 uM): 1.2494
6 | CCOc1ccc2nc(Cl)sc2c1 [MLS000678673-01] | 0.9325 | 1.054 | 1.044 | 0.9687 | 1.173 | 1.134 | 0.9772 | 0.9802 | 0.9767 | 0.9606 | 0.8655 | 0.781 | 1.2106 | 1.1914 | 1.0561 | 0.8991 | 0.8674 | 0.9656 | 1.1229 | 1.0286 | CMV-LACZ in Myotubes, signal relative to DMSO ([4]; 5 uM): 0.7918; CMV-LACZ in Myotubes, signal relative to DMSO ([4]; 10 uM): 0.9367; CMV-LACZ in Myotubes, signal relative to DMSO ([4]; 20 uM): 0.9635; CMV-LACZ in Myotubes, signal relative to DMSO ([4]; 40 uM): 1.1835

— patent publication US9980943B2, “Methods of treating muscular dystrophy” (BOARD OF REGENTS OF THE NEVADA SYSTEM OF HIGHER EDUCATION, …, priority 2013, dated 2018)
